{"source": "patent US20230085307A1", "about": "“PYRIDAZINONE COMPOUND AND HERBICIDE” (NISSAN CHEMICAL CORPORATION, priority 2019, published 2023)", "key": {"barnyard grass [1]": {"tested_on": "barnyard grass", "test": "Test Example 3: herbicidal effect by foliage application, Wagner pot (Table 18, symbol H)", "type": "in vivo, barnyard grass (Echinochloa crus-galli)", "settings": "320 g/ha", "in_short": "(§1)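 Plants were sown in alluvial soil held under 0.1–0.5 cm standing water and grown 14 days in a greenhouse at 25–30 °C. An emulsifiable formulation, water-diluted to the set dose, was then sprayed onto the foliage, and effects were scored three weeks later using previously defined criteria.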"}, "green foxtail": {"tested_on": "green foxtail", "test": "Test Example 5: herbicidal effect by foliage application, plastic box (Table 20, symbol G)", "type": "in vivo, green foxtail (Setaria viridis)", "settings": "foliage application, 320 g/ha, three weeks after application", "in_short": "(§2)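 Foliar spray test: emulsion formulation diluted in water to a set application rate, sprayed onto 14-day-old plants raised in diluvial soil at 25° C to 30° C under glass. Both herbicidal effect and crop effect rated visually three weeks later.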"}, "redroot pigweed": {"tested_on": "redroot pigweed", "test": "Test Example 5: herbicidal effect by foliage application, plastic box (Table 20, symbol N)", "type": "in vivo, redroot pigweed (Amaranthus retroflexus)", "settings": "foliage application, 320 g/ha, three weeks after application", "in_short": "as §2"}, "blackgrass": {"tested_on": "blackgrass", "test": "Test Example 5: herbicidal effect by foliage application, plastic box (Table 20, symbol J)", "type": "in vivo, blackgrass (Alopecurus myosuroides)", "settings": "foliage application, 320 g/ha, three weeks after application", "in_short": "as §2"}, "rice flat sedge": {"tested_on": "rice flat sedge", "test": "Test Example 3: herbicidal effect by foliage application, Wagner pot (Table 18, symbol E)", "type": "in vivo, rice flat sedge (Cyperus iria)", "settings": "320 g/ha", "in_short": "as §1"}, "southern crabgrass": {"tested_on": "southern crabgrass", "test": "Test Example 5: herbicidal effect by foliage application, plastic box (Table 20, symbol F)", "type": "in vivo, southern crabgrass (Digitaria ciliaris)", "settings": "foliage application, 320 g/ha, three weeks after application", "in_short": "as §2"}, "chickweed": {"tested_on": "chickweed", "test": "Test Example 5: herbicidal effect by foliage application, plastic box (Table 20, symbol P)", "type": "in vivo, common chickweed (Stellaria media)", "settings": "foliage application, 320 g/ha, three weeks after application", "in_short": "as §2"}, "lambsquarters": {"tested_on": "lambsquarters", "test": "Test Example 5: herbicidal effect by foliage application, plastic box (Table 20, symbol O)", "type": "in vivo, lambsquarters (Chenopodium album)", "settings": "foliage application, 320 g/ha, three weeks after application", "in_short": "as §2"}, "barnyard grass [2]": {"tested_on": "barnyard grass", "test": "Test Example 5: herbicidal effect by foliage application, plastic box (Table 20, symbol H)", "type": "in vivo, barnyard grass (Echinochloa crus-galli)", "settings": "foliage application, 320 g/ha, three weeks after application", "in_short": "as §2"}, "windgrass": {"tested_on": "windgrass", "test": "Test Example 5: herbicidal effect by foliage application, plastic box (Table 20, symbol L)", "type": "in vivo, windgrass (Apera spica-venti)", "settings": "foliage application, 320 g/ha, three weeks after application", "in_short": "as §2"}, "Italian ryegrass": {"tested_on": "Italian ryegrass", "test": "Test Example 5: herbicidal effect by foliage application, plastic box (Table 20, symbol K)", "type": "in vivo, Italian ryegrass (Lolium multiflorum)", "settings": "foliage application, 320 g/ha, three weeks after application", "in_short": "as §2"}, "Japanese bulrush": {"tested_on": "Japanese bulrush", "test": "Test Example 1: herbicidal activity, application before weed generation under submerged conditions (Table 16, symbol B)", "type": "in vivo, Japanese bulrush (Schoenoplectus juncoides)", "settings": "320 g/ha applied herbicide", "in_short": "(§3)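 Alluvial soil was flooded to 4 cm depth, weed seeds were sown mixed and 2.5-leaf rice seedlings were transplanted. On sowing day, the compound's emulsion, diluted in water to a set dose, was applied to the water surface. Plants grew at 25–30 °C and were scored 0–5 after three weeks.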"}, "late watergrass": {"tested_on": "late watergrass", "test": "Test Example 1: herbicidal activity, application before weed generation under submerged conditions (Table 16, symbol A)", "type": "in vivo, late watergrass (Echinochloa oryzicola)", "settings": "320 g/ha applied herbicide", "in_short": "as §3"}, "velvetleaf": {"tested_on": "velvetleaf", "test": "Test Example 5: herbicidal effect by foliage application, plastic box (Table 20, symbol M)", "type": "in vivo, velvetleaf (Abutilon theophrasti)", "settings": "foliage application, 320 g/ha, three weeks after application", "in_short": "as §2"}, "persian speedwell": {"tested_on": "persian speedwell", "test": "Test Example 5: herbicidal effect by foliage application, plastic box (Table 20, symbol R)", "type": "in vivo, Persian speedwell (Veronica persica)", "settings": "foliage application, 320 g/ha, three weeks after application", "in_short": "as §2"}, "Chinese sprangletop": {"tested_on": "Chinese sprangletop", "test": "Test Example 3: herbicidal effect by foliage application, Wagner pot (Table 18, symbol D)", "type": "in vivo, chinese sprangletop (Leptochloa chinensis)", "settings": "320 g/ha", "in_short": "as §1"}, "false cleavers": {"tested_on": "false cleavers", "test": "Test Example 5: herbicidal effect by foliage application, plastic box (Table 20, symbol Q)", "type": "in vivo, false cleavers (Galium spurium)", "settings": "foliage application, 320 g/ha, three weeks after application", "in_short": "as §2"}, "wild oat": {"tested_on": "wild oat", "test": "Test Example 5: herbicidal effect by foliage application, plastic box (Table 20, symbol I)", "type": "in vivo, wild oat (Avena fatua)", "settings": "foliage application, 320 g/ha, three weeks after application", "in_short": "as §2"}}, "data": [{"smiles": "CCCCOc1ccccc1-c1sc2ccccc2c1-c1c(O)c(C)nn(C)c1=O", "note": "[1-022]", "values": [{"measurement": "herbicidal effect on H (barnyard grass), rating 0-5", "setting": "barnyard grass [1]", "value": "3 (Herbicidal rate of 40% or more and less than 70%)"}, {"measurement": "herbicidal effect grade, G: green foxtail", "setting": "green foxtail", "value": "0 (Herbicidal rate of 5% or less (almost no effect))"}, {"measurement": "herbicidal effect grade, N: redroot pigweed", "setting": "redroot pigweed", "value": "3 (Herbicidal rate of 40% or more and less than 70%)"}, {"measurement": "herbicidal effect grade, J: blackgrass", "setting": "blackgrass", "value": "0 (Herbicidal rate of 5% or less (almost no effect))"}, {"measurement": "herbicidal effect on E (rice flat sedge), rating 0-5", "setting": "rice flat sedge", "value": "4 (Herbicidal rate of 70% or more and less than 90%)"}, {"measurement": "herbicidal effect grade, F: southern crabgrass", "setting": "southern crabgrass", "value": "0 (Herbicidal rate of 5% or less (almost no effect))"}, {"measurement": "herbicidal effect grade, P: chickweed", "setting": "chickweed", "value": "5 (Herbicidal rate of 90% or more (almost completely withered))"}, {"measurement": "herbicidal effect grade, O: lambsquarters", "setting": "lambsquarters", "value": "0 (Herbicidal rate of 5% or less (almost no effect))"}, {"measurement": "herbicidal effect grade, H: barnyard grass", "setting": "barnyard grass [2]", "value": "3 (Herbicidal rate of 40% or more and less than 70%)"}, {"measurement": "herbicidal effect grade, L: windgrass", "setting": "windgrass", "value": "0 (Herbicidal rate of 5% or less (almost no effect))"}, {"measurement": "herbicidal effect grade, K: Italian ryegrass", "setting": "Italian ryegrass", "value": "0 (Herbicidal rate of 5% or less (almost no effect))"}, {"measurement": "Herbicidal effect on B: Japanese bulrush (grade 0-5)", "setting": "Japanese bulrush", "value": "3 (Herbicidal rate of 40% or more and less than 70%)"}, {"measurement": "Herbicidal effect on A: late watergrass (grade 0-5)", "setting": "late watergrass", "value": "2 (Herbicidal rate of 20% or more and less than 40%)"}, {"measurement": "herbicidal effect grade, M: velvetleaf", "setting": "velvetleaf", "value": "0 (Herbicidal rate of 5% or less (almost no effect))"}, {"measurement": "herbicidal effect grade, R: persian speedwell", "setting": "persian speedwell", "value": "5 (Herbicidal rate of 90% or more (almost completely withered))"}, {"measurement": "herbicidal effect on D (Chinese sprangletop), rating 0-5", "setting": "Chinese sprangletop", "value": "0 (Herbicidal rate of 5% or less (almost no effect))"}, {"measurement": "herbicidal effect grade, Q: false cleavers", "setting": "false cleavers", "value": "4 (Herbicidal rate of 70% or more and less than 90%)"}, {"measurement": "herbicidal effect grade, I: wild oat", "setting": "wild oat", "value": "0 (Herbicidal rate of 5% or less (almost no effect))"}]}]}
